Literature values as cited in PMC9199876 (Clinical and Translational Science, 2022).
Read-outs that look alike come from different tables or passages of the source.

What was measured:
[1] = oral administration, rats; cited from earlier work
[2] = oral administration, dogs; cited from earlier work
CYP2C8 [3] = settings: in vitro; cited from earlier work
[4] = preclinical; cited from earlier work
CYP1A2 = settings: in vitro, clinically relevant dose (0.06 μM); cited from earlier work
CYP2C8 [5] = settings: in vitro, clinically relevant dose (0.06 μM); cited from earlier work
[6] = cited from earlier work
p-glycoprotein (P-gp) = settings: in vitro; cited from earlier work
OAT1 = settings: in vitro; cited from earlier work
OAT3 = settings: in vitro; cited from earlier work
OCT2 = settings: in vitro; cited from earlier work
BCRP = settings: at a clinically relevant dose; cited from earlier work
bile salt export pump = settings: at a clinically relevant dose; cited from earlier work
MATE1 = settings: at a clinically relevant dose; cited from earlier work

**Q.** What does the source list for `O=C(O)c1cccc(CN2CN(C3CCCCC3)C3(CCN(CCCC(=O)c4ccccc4)CC3)C2=O)c1` [trazpiroben, Trazpiroben]?
**A.** absolute bioavailability [1]: ~ 20%; absolute bioavailability [2]: ~ 20%; share of metabolism via CYP2C8 (CYP2C8 [3]): 11.8%; accumulation after repeated doses [4]: minor accumulation; increase of plasma concentrations with dose [4]: dose‐proportional manner; inhibition of CYP1A2 (CYP1A2): does not inhibit; inhibition of CYP2C8 (CYP2C8 [5]): does not inhibit; accumulation index ([6]; 50 mg twice daily for 5 days): 1.9; accumulation index ([6]; 100 mg twice daily for 5 days): 1.4; time to maximum concentration [T max] ([6]; AT-01C study, healthy men and women): ~ 1.1 h; mean half-life ([6]; AT-01C study): 4 h; mean apparent oral clearance ([6]; across single-dose groups of 25–300 mg): 600 to 800 L/h; substrate of p-glycoprotein (P-gp) (p-glycoprotein (P-gp)): substrate; substrate of OAT1 (OAT1): not a substrate; substrate of OAT3 (OAT3): not a substrate; substrate of OCT2 (OCT2): not a substrate; inhibitor of BCRP (BCRP): not an inhibitor; inhibitor of bile salt export pump (bile salt export pump): not an inhibitor; inhibitor of MATE1 (MATE1): not an inhibitor
